From patent US8466110B2, “Use of an agent that restores tissue perfusion and oxygenation” (Duke University, priority 2005, dated 2013)
Entries after “also recorded” stand apart in the source; their conditions may differ.

Columns and labels:
tumor-feeding arterioles = experiment: Diameter of tumor-feeding arterioles in window chambers; format: in vivo, rat; design: key to TUMOR vascular diameter: 0, unchanged; ↓, decreased; ↑, increased; settings: for TUMOR vascular diameter: IV
Excerpt: For i.v. infusions, the femoral artery and vein were cannulated and drugs were infused through the venous cannula. For i.a. infusions, the femoral and left carotid arteries were cannulated and drugs were infused through the carotid cannula. For window chamber experiments, the two window frames were surgically positioned in the dorsal skin flap, followed by tumor cell transplantation to the chamber tissue, as described in Dewhirst et al., 1996. Following several days of tumor growth, direct visualization of tumor-feeding arterioles was performed using intravital microscopy. Tumor-feeding arterioles in window chambers were visualized using transillumination. Arteriolar diameters were measured from videotaped images using an image-shearing monitor (IPM Inc., San Diego, Calif., United States of America).

Fischer 344 rats [1] = experiment: Mean arterial pressure and heart rate; format: in vivo, rat; design: key to SYSTEMIC MAP / SYSTEMIC HR: 0, unchanged; ↓, decreased; ↑, increased
Procedure: Mean arterial pressure (MAP) and heart rate (HR) were measured with a blood pressure analyzer (Digi-Med, Micro-Med, Louisville, Ky., United States of America) connected to the femoral artery cannula as described in Dewhirst et al., 1996.

[2] = system: mammary adenocarcinoma R3230AC tumors; experiment: Tumor perfusion by Laser Doppler flowmetry; format: in vivo, rat; design: key to TUMOR perfusion: 0, unchanged; ↓, decreased; ↑, increased; settings: for tumor blood flow (perfusion), flank tumors: normoxic rats
[3] = system: mammary adenocarcinoma R3230AC tumors; experiment: Tumor pO2 during gas breathing; format: in vivo, rat
Procedure: (§1) Tumors were implanted in rats as described hereinabove, and the rats were set up to breathe either 100% O2, 100% O2 plus 100 parts per million ethyl nitrite (ENO), normal room air, or normal room air plus 100 ppm ENO. pO2 was monitored in the tumor or in quadriceps muscle from 30 minutes before the administration of the 100% O2/100% O2 plus 100 ppm ENO/room air/room air plus 100 ppm ENO, during 30 minutes of breathing of the gases, and for 30 minutes after the administered gas supply was removed.

quadriceps muscle [4] = experiment: Quadriceps muscle pO2 during gas breathing; format: in vivo, rat
Procedure: as §1

Fischer 344 rats [5] = experiment: Blood gas and hemoglobin saturation measurements; format: in vivo, rat; settings: breathing 100% O2
Procedure: Blood gases and Hb oxygen saturation were measured using a 1640 oximeter coupled to a 482 co-oximeter (Instrumentation Laboratories, Lexington, Mass., United States of America) from 0.5 ml samples of femoral arterial and venous blood. For tumor microvessels in window chambers, Hb saturation was calculated from transmission optical measurements of vascular absorbance using a hyperspectral imaging technique described in Sorg et al., 2005. A liquid crystal tunable filter (CRI, Inc., Woburn, Mass., United States of America) placed in front of a CCD camera (DVC Company, Austin, Tex., United States of America) was used for band-limited imaging.

[6] = system: mammary adenocarcinoma R3230AC tumors; experiment: Tumor growth delay after radiation; format: in vivo, rat; settings: 100 ppm ENO plus 100% O2; 2 Gy daily on days 0-4; versus 100% O2, room air, non-irradiated
Procedure: Tumors were implanted in rats as described hereinabove, and the tumors were irradiated daily with 2 Gy of irradiation on days 0-4. Relative tumor volumes were determined daily from day 0 to day 18 in rats that breathed room air (N=4), 100% O2 (N=4), or 100 ppm ENO plus 100% O2. As a control, relative tumor volumes for rats that breathed room air (N=3) and were not treated with radiation. were also determined.

quadriceps muscle [7] = experiment: Quadriceps muscle (systemic) perfusion by Laser Doppler flowmetry; format: in vivo, rat; design: key to SYSTEMIC perfusion: 0, unchanged; ↓, decreased; ↑, increased; settings: for muscle blood flow (leg quadriceps): hyperoxia versus normoxia
[8] = Hb tetramer/dimer dissociation; format: physicochemical; settings: assuming plasma concentration of about 6.5 μmol/L, room air
Excerpt: Hb dissociation from tetramers to dimers depends on Hb concentration and oxygen tension, and NO release from dimers is unresponsive to allosteric effectors (e.g., O2). […] Is there enough tetrameric SNO-Hb to sense oxygen and regulate NO delivery? Evidently yes, as a finely tuned regulation of SNO-Hb bioactivity by oxygen tension (NO release depends on local pO2) that contrasted with the O2-independent behavior of oxy-Hb was observed. That the plasma half-life of SNO on Hb was more than doubled during hyperoxia while protein clearance remained unaffected was also observed.

[9] = system: baroreceptor and peripheral vasculature; experiment: Summary of bioactivity of cell-free SNO-Hb and oxy-Hb (Table 3); format: in vivo, rat
[10] = cited from earlier work
[11] = 30 minutes breathing 100% O2 or 100% O2 plus 100 ppm ENO
[12] = 30 minutes breathing room air plus 100 ppm ENO
[13] = i.v. infusion, normoxic animals
[14] = IV, Room air, change versus before treatment
[15] = vascular pO2 at injection site low
[16] = i.a. and i.v. infusion, control experiments
[17] = vascular pO2 at injection site any

O=O [100% O2]
diameter of tumor feeding arterioles (tumor-feeding arterioles; hyperoxia alone, t=-5 to t=0): no vascular effect
change in HR (Fischer 344 rats [1]; hyperoxia alone, N=19): −3%
change in MAP (Fischer 344 rats [1]; hyperoxia alone, N=19): +1%
effects of hyperoxia alone on tumor and muscle perfusion ([2]; 100% O2 alone, before drug infusion): transient decrease that resumed within 5 minutes (i.e., before drug infusion) to no change
pO2 in tumors [3, 11]: insufficient to raise the pO2 to above 10 mm Hg
pO2 in quadriceps muscle (quadriceps muscle [4]; [11]): increased rapidly
Femoral artery HbO2 (Fischer 344 rats [5]): 98.2 ± 0.1 %
Femoral artery pCO2 (Fischer 344 rats [5]): 56.9 ± 1.7 mm Hg
Femoral artery pO2 (Fischer 344 rats [5]): 435.5 ± 34.7 mm Hg
Femoral vein HbO2 (Fischer 344 rats [5]): 75.8 ± 3.4 %
Femoral vein pCO2 (Fischer 344 rats [5]): 72.0 ± 2.1 mm Hg
Femoral vein pO2 (Fischer 344 rats [5]): 69.8 ± 3.0 mm Hg
Tumor artery HbO2 (Fischer 344 rats [5]; window chamber): 89 ± 2 %
Tumor vein HbO2 (Fischer 344 rats [5]; window chamber): 78 ± 3 %

CCON=O [ENO, ethyl nitrite]
pO2 in tumors [3, 11]: above 10 mm Hg
pO2 in tumors [3, 12]: remained largely unchanged
pO2 in quadriceps muscle (quadriceps muscle [4]; [11]): increased rapidly
pO2 in quadriceps muscle (quadriceps muscle [4]; [12]): this effect was not seen
growth of irradiated tumors (relative tumor volume) [6]: grew more slowly

S-nitrosohemoglobin [SNO-Hb]
TUMOR vascular diameter (tumor-feeding arterioles; 100% O2): 0
TUMOR vascular diameter (tumor-feeding arterioles; Room air): 0
diameter of tumor feeding arterioles (tumor-feeding arterioles; i.v. infusion, normoxic or hyperoxic rats, window chamber): no significant change
SYSTEMIC HR (Fischer 344 rats [1]; IA, 100% O2): 0
SYSTEMIC MAP (Fischer 344 rats [1]; IA, 100% O2): ↑
SYSTEMIC HR (Fischer 344 rats [1]; IA, Room air): 0
SYSTEMIC MAP (Fischer 344 rats [1]; IA, Room air): ↑
SYSTEMIC HR (Fischer 344 rats [1]; IV, 100% O2): 0
SYSTEMIC MAP (Fischer 344 rats [1]; IV, 100% O2): ↑
SYSTEMIC HR (Fischer 344 rats [1]; IV, Room air): 0
SYSTEMIC MAP (Fischer 344 rats [1]; IV, Room air): 0
HR (Fischer 344 rats [1]; i.a. infusion, normoxic and hyperoxic): remained unchanged
MAP (Fischer 344 rats [1]; i.a. infusion, from 5 minutes (normoxic) and 10 minutes (hyperoxic)): significant increase in MAP
HR (Fischer 344 rats [1]; i.v. infusion, hyperoxia): no significant effect on HR
MAP (Fischer 344 rats [1]; i.v. infusion, hyperoxia, from 10 minutes after infusion): significant increase in the MAP
HR (Fischer 344 rats [1]; [13]): No change
MAP (Fischer 344 rats [1]; [13]): No change
TUMOR perfusion ([2]; IA, 100% O2): 0
TUMOR perfusion ([2]; IA, Room air): 0
TUMOR perfusion ([2]; IV, 100% O2): 0
TUMOR perfusion [2, 14]: ↓*
pressor activity (tumor perfusion) ([2]; i.a. infusion, hyperoxic rats versus i.a. room air): not altered
decrease in tumor perfusion ([2]; i.a. infusion, normoxic animals, compared to i.v.): not significantly different compared to i.v. infusion
tumor perfusion, flank tumors ([2]; i.v. infusion, 100% O2 (hyperoxia) versus room air): hyperoxia abolished the reduction in tumor perfusion
tumor perfusion, window chamber tumors ([2]; i.v. infusion, hyperoxic rats): this decrease was prevented
tumor perfusion, window chamber tumors [2, 13]: potent decrease in tumor perfusion
tumor blood flow (perfusion), flank tumors ([2]; i.v. infusion): reduced perfusion
SYSTEMIC perfusion (quadriceps muscle [7]; IA, 100% O2): 0
SYSTEMIC perfusion (quadriceps muscle [7]; IA, Room air): 0
SYSTEMIC perfusion (quadriceps muscle [7]; IV, 100% O2): 0
SYSTEMIC perfusion (quadriceps muscle [7]; IV, Room air): ↓
muscle blood flow (quadriceps) (quadriceps muscle [7]; i.a. infusion, independently of O2 delivery): remained unaltered
muscle blood flow (leg quadriceps) (quadriceps muscle [7]; i.v. infusion): prevented under hyperoxia
muscle perfusion in the quadriceps (quadriceps muscle [7]; i.v. infusion, rats breathing room air (normoxia)): decreased muscle perfusion more than Hb; also recorded: decrease in muscle blood flow
fraction present as tetramers [8]: about 35%
Baroreceptor effect ([9]; vascular pO2 at injection site high): inhibition
Peripheral effect ([9]; vascular pO2 at injection site high, dose-dependent effect): vasodilation
Baroreceptor effect [9, 15]: none
Peripheral effect [9, 15]: vasoconstriction
KD (tetramer/dimer), R conformer ([10]; R conformer): 3000 nM
KD (tetramer/dimer), T conformer ([10]; T conformer): 3 nM

SNO-albumin: bovine serum albumin reacted with NaNO2 (S-nitrosylated albumin) [reference compound]
tumor blood flow (perfusion), flank tumors ([2]; i.v. infusion): small increase in tumor perfusion

albumin [reference compound]
HR (Fischer 344 rats [1]; [16]): did not induce any significant or differential change
MAP (Fischer 344 rats [1]; [16]): did not induce any significant or differential change
TUMOR perfusion [2, 16]: did not induce any significant or differential change

oxyhemoglobin [oxy-Hb, reference compound]
SYSTEMIC MAP (Fischer 344 rats [1]; IV, 100% O2): 0
SYSTEMIC MAP (Fischer 344 rats [1]; IV, Room air): 0
MAP (Fischer 344 rats [1]; i.v. infusion, normoxia or hyperoxia): no effect on MAP
HR (Fischer 344 rats [1]; i.v. infusion, from 5 minutes after infusion, more severe in hyperoxic than in normoxic rats): induced bradycardia
TUMOR perfusion ([2]; IV, 100% O2): ↓
TUMOR perfusion [2, 14]: ↓
tumor blood flow (perfusion), flank tumors ([2]; i.v. infusion): rapid and sustained decrease in tumor blood flow
SYSTEMIC perfusion (quadriceps muscle [7]; IV, 100% O2): ↓
SYSTEMIC perfusion (quadriceps muscle [7]; IV, Room air): ↓
muscle blood flow (leg quadriceps) (quadriceps muscle [7]; i.v. infusion): hyperoxia did not modify the effect of oxy-Hb in muscles
Baroreceptor effect [9, 17]: none
Peripheral effect [9, 17]: vasoconstriction
